The values below come from patent EP0818443B1, “Mercaptoketones and mercaptoalcohols, a process for their preparation and their use as inhibitors of matrix metalloproteinases” (American Cyanamid Company, priority 1996, dated 1998).

In general, inhibition refers to the share of the control response that was lost under treatment. A word on the IC50: it is the concentration that gives 50% inhibition.

In one assay the target is MMP stromelysin (Homo sapiens, UniProt P08254). The note with it: WO 9407481; cited from earlier work.
MMP stromelysin, sequence (P08254 100-477): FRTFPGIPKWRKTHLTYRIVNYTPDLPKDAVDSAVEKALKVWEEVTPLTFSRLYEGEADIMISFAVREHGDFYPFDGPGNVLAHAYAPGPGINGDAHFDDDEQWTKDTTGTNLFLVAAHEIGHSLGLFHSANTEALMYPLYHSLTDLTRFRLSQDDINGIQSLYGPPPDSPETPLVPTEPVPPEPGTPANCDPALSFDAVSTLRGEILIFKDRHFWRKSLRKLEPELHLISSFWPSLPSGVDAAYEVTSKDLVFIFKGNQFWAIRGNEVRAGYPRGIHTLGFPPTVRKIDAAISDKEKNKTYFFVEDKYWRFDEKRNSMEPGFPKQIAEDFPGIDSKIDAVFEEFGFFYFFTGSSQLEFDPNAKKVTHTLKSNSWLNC
For assay [1], the target named is T1, human recombinant stromelysin (Homo sapiens, UniProt P08254).
T1 construct: human recombinant stromelysin (truncated, Affymax); purchased Affymax
T1 sequence (P08254 100-272 limits assumed): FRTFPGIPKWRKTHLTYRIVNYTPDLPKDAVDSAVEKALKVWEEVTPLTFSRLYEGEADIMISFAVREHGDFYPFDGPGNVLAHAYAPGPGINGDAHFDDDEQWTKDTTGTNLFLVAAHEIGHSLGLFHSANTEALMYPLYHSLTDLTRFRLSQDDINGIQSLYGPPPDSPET
Description: Stromelysin inhibition in vitro (thiopeptide substrate, DTNB). Format: biochemical. The protocol: The assay is based on the cleavage of the thiopeptide substrate ((Ac-Pro-Leu-Gly(2-mercapto-4-methylpentanoyl)Leu-Gly-OEt), Bachem Bioscience) by the enzyme stromelysin, releasing the substrate product which forms a colorimetric reaction with DTNB ((5,5'-dithiobis(2-nitrobenzoic acid)). The thiopeptide substrate is made up as a 20mM stock in 100% DMSO and stored frozen while the DTNB stock is dissolved in 100% DMSO and stored as a 100mM stock at room temperature. Both the substrate and DTNB are diluted to 1mM with assay buffer (50mM HEPES, pH 7.0, 5 mM CaCl2) before use. The stock of human recombinant stromelysin (truncated, Affymax) is diluted with assay buffer to a final concentration of 12.5 nM in the reaction.
The enzyme, DTNB, and substrate (10µM final concentration) with/without inhibitor (total reaction volume of 200µL) is added to a 96 well plate and then the increase in color is monitored spectrophotometrically for 5 minutes at 405 nanometers (nm) on a plate reader. The increase in OD405 is plotted and the slope of the line is calculated which represents the reaction rate.
The mean of the control rate is calculated and compared for statistical significance (p<0.05) with drug-treated rates using Dunnett's multiple comparison test. Dose-response relationships can be generated using multiple doses of drug and IC50 values with 95% Cl are estimated using linear regression (IPRED, HTB) (Weingarten and Feder, Spectrophometric Assay For Vertebrate Collagenase, Anal. Biochem 147, 437-440 (1985)).

Assay [2] deals with T2, human recombinant fibroblast collagenase (Homo sapiens, UniProt P03956).
T2 construct: human recombinant fibroblast collagenase (truncated, mw 18,828, WAR, Radnor)
T2 sequence (P03956 100-269 limits assumed): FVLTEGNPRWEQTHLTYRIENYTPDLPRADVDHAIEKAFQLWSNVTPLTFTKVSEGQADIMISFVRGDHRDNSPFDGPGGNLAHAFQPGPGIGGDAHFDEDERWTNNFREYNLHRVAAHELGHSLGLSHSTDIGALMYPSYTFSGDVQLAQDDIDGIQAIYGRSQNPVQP
As to the kind of experiment: Collagenase inhibition in vitro (fluorogenic peptide substrate). Format: biochemical. The protocol: The assay is based on the cleavage of a peptide substrate ((Dnp-Pro-Cha-Gly-Cys(Me)-His-Ala-Lys(NMa)-NH2), Peptide International, Inc.) by collagenase releasing the fluorescent NMa group which is quantitated on the fluorometer. Dnp quenches the NMa fluorescence in the intact substrate. The assay is run in HCBC assay buffer (50mM HEPES, pH 7.0, 5mM Ca^+2, 0.02% Brij, 0.5% cysteine), with human recombinant fibroblast collagenase (truncated, mw 18,828, WAR, Radnor). Substrate is dissolved in methanol and stored frozen in 1mM aliquots. Collagenase is stored frozen in buffer in 25 µM aliquots. For the assay, substrate is dissolved in HCBC buffer to a final concentration of 10 µM and collagenase to a final concentration of 5nM. Compounds are dissolved in methanol, DMSO, or HCBC. The methanol and DMSO are diluted in HCBC to <1%. Compounds are added to the 96 well plate containing enzyme and the reaction is started by the addition of substrate.
The reaction is read (excitation 340 nm, emission 444nm) for 10 minutes and the increase in fluorescence over time is plotted as a linear line. The slope of the line is calculated and represents the reaction rate.
The linearity of the reaction rate is confirmed (r^2>0.85). The mean of the control rate is calculated and compared for statistical significance (p<0.05) with drug-treated rates using Dunnett's multiple comparison test. Dose-response relationships can be generated using multiple doses of drug and IC50 values with 95% CI are estimated using linear regression (IPRED, HTB) (Bickett, D. M. et al., A High Throughput Fluorogenic Substrate For Interstitial Collagenase (MMP-1) and Gelatinase (MMP-9), Anal. Biochem. 212, 58-64 (1993)).

Another assay has as its target gelatinase (Homo sapiens, UniProt P14780). Description: In vivo MMP inhibition (enzyme in implanted dialysis tubing). Further details: species or system rat (Sprague-Dawley) or mouse (CD-1). The protocol: A 2 cm piece of dialysis tubing (molecular weight cut-off 12-14,000, 10 mm flat width) containing matrix metalloproteinase enzyme (stromelysin, collagenase or gelatinase in 0.5 mL of buffer) is implanted either ip or sc (in the back) of a rat (Sprague-Dawley, 150-200g) or mouse (CD-1, 25-50g) under anesthesia. Drugs are administered PO, IP, SC or IV through a canula in the jugular vein. Drugs are administered in a dose volume of 0.1 to 0.25 mL/animal. Contents of the dialysis tubing is collected and enzyme activity assayed.
Enzyme reaction rates for each dialysis tube are calculated. Tubes from at least 3 different animals are used to calculate the mean± sem. Statistical significance (p<0.05) of vehicle-treated animals versus drug-treated animals is determined by analysis of variance. (Agents and Actions 21: 331, 1987)

The target of assay [3] is T3, human neutrophil gelatinase B (Homo sapiens, UniProt P14780).
T3 construct: human neutrophil gelatinase B; from tissue; host or cells: human neutrophils
T3 sequence (P14780 94-707): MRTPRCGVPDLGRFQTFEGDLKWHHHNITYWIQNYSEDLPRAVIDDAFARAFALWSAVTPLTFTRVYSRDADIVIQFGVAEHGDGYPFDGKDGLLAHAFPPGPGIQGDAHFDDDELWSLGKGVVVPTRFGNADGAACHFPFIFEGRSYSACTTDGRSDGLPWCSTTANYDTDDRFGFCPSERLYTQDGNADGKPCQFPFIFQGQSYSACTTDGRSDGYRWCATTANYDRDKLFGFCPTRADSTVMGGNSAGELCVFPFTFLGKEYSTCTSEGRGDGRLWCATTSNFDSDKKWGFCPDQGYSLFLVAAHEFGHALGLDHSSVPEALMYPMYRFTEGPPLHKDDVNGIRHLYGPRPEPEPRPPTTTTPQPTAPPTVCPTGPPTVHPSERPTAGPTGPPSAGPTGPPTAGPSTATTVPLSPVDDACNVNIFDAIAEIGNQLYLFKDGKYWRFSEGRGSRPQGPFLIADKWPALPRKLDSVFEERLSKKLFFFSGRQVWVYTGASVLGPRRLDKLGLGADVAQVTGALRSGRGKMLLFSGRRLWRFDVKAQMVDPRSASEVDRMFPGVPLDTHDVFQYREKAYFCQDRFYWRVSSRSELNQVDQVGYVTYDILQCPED
Description: Gelatinase inhibition in vitro (thiopeptide substrate, DTNB). Format: biochemical. The protocol: The increase in OD405 is plotted and the slope of the line is calculated which represents the reaction rate.
The mean of the control rate is calculated and compared for statistical significance (p<0.05) with drug-treated rates using Dunnett's multiple comparison test.

gelatinase, sequence (P14780 94-707): as above

Regarding `CC(C)C[C@H](NC(=O)[C@@H](CS)CCc1ccccc1)C(=O)Nc1ccccc1`, the “inhibitor of the MMP stromelysin” value at MMP stromelysin is “moderate”.
Turning to `CNC(=O)[C@@H](NC(=O)[C@H](CC(C)C)C[C@@H](O)CSC(c1ccccc1)(c1ccccc1)c1ccccc1)C(C)(C)C` [Example 35, (2R,4R)-4-Hydroxy-2-isobutyl-5-tritylsulfanylpentanoic acid ((1S)-2,2-dimethyl-1-methylcarbamoylpropyl)amide], the figures for the inhibition at 1 µM in assay [1] and in assay [2] (@1µM) were 38% and 72%, respectively. For the same molecule, the “in vivo % gelatinase inhibition” value at gelatinase (50mpk (milligrams/kilogram)) is recorded as 0.44/50mpk %.
As for `CCCCCCC[C@H](C[C@H](O)CS)C(=O)N[C@H](C(=O)NC)C(C)(C)C` [Example 38, (2R)-2-((2S)-2-Hydroxy-3-mercaptopropyl)nonanoic acid ((1S)-2,2-dimethyl-1-methylcarbamoylpropyl)amide], in assay [2], the IC50 was 30 nM. Besides, the “in vivo % gelatinase inhibition” value at gelatinase (50mpk (milligrams/kilogram)) is listed as 22.2/50mpk %.
In the case of `CNC(=O)[C@@H](NC(=O)[C@H](CC(C)C)C[C@@H](O)CS)C(C)(C)C` [Example 39, (2R,4R)-4-Hydroxy-2-isobutyl-5-mercaptopentanoic acid ((1S)-2,2-dimethyl-1-methylcarbamoylpropyl)amide], the IC50 in assay [3] was determined as 106 nM; in assay [2], 228 nM. Besides, on gelatinase (50mpk (milligrams/kilogram)), the “in vivo % gelatinase inhibition” value is on record as 20.4/50 mpk %.
Turning to `CNC(=O)[C@@H](NC(=O)[C@H](CC(C)C)C[C@H](O)CS)C(C)(C)C` [Example 40, (2R,4S)-4-Hydroxy-2-isobutyl-5-mercaptopentanoic acid ((1S)-2,2-dimethyl-1-methylcarbamoylpropyl)amide], the values for the half-maximal inhibitory concentration (IC50) in assay [3] and in assay [2] were 19 nM and 41 nM, respectively. Further, the “in vivo % gelatinase inhibition” value on gelatinase (50mpk (milligrams/kilogram)) is recorded as 84.8/50mpk %.
On to `CCCCCCC[C@H](CC(=O)CS)C(=O)N[C@H](C(=O)NC)C(C)(C)C` [Example 43, (2R)-2-(3-Mercapto-2-oxopropyl)nonanoic acid ((1S)-2,2-dimethyl-1-methylcarbamoylpropyl)amide], for which the figures for the IC50 in assay [1] and in assay [2] were 28 nM and 30 nM, respectively. On gelatinase (50mpk (milligrams/kilogram)), the “in vivo % gelatinase inhibition” value is 0.73/50mpk* %.
As to `CNC(=O)[C@@H](NC(=O)[C@@H](CC(=O)CS)CC(C)C)C(C)(C)C` [Example 44, (2R)-2-Isobutyl-5-mercapto-4-oxopentanoic acid ((1S)-2,2-dimethyl-1-methylcarbamoylpropyl)amide], the inhibition at 1 µM in assay [1] was 58%. For the same molecule, the IC50 in assay [2] amounted to 38 nM. Also, the “in vivo % gelatinase inhibition” value on gelatinase (60mpk (milligrams/kilogram)) is reported as 4.8/60mpk %.
